Experimental data reported in US5668143A, “Heterocyclic benzenesulfonylimine derivatives as inhibitors of IL-1 action” (Merrell Pharmaceuticals Inc., priority 1996, dated 1997).

Assays:
[1] = tested on: interleukin-1 beta (IL-1β) release (production) by human peripheral blood monocyte-derived macrophages; test: Endotoxin-Induced Interleukin-1 Beta Release by Human Macrophages; type: cell-based; settings: Macrophage, endotoxin 20 ng/mL (Salmonella typhimurium, Re-mutant), compound 1 h before stimulation, supernatant at 24 h, ELISA
Experimental: Endotoxin-Induced Interleukin-1 Beta Release by Human Macrophages The objective of this test is to determine the inhibitory concentrations for the test compounds against endotoxin-induced interleukin-1 beta (IL-1β) release (production) by human peripheral blood monocyte-derived macrophages. The source of the human peripheral blood monocyte-derived macrophages is as follows: Venous blood is collected from healthy volunteers in 10 mM sodium citrate (2 mL sterile sodium citrate for 40 mL blood). Mononuclear cells are isolated with the Leucoprep tubes (Becton Dickenson, product number 2752 or 2751) spun at 1500 g for 15 minutes. Aliquots of 3×10^6 mononuclear cells are added to 24-well tissue culture plates (Corning) in RPMI-1640. After one hour incubation at 37° C., non-adherent cells are gently rinsed off. The adherent cells (macrophages) are given back fresh medium RPMI-1640, 1 mL/well. Macrophage monolayer cultures are pretreated with compounds one hour prior to endotoxin (20 ng/mL, Salmonella typhimurium, Re-mutant, from Ribi Immuchem.) stimulation. Compounds dissolved in 95% ethanol or DMSO would require additional monolayer cultures treated with 10 or 2.5 μl 95% ethanol or DMSO, respectively. Culture supernatants are collected 24 hours later and are tested for IL-1β using a commercial ELISA kit (Cistron). The IL-1β concentration in the culture supernatant is calculated by a standard curve generated from a series of known concentrations. Potency of compound is reported in IC50 (μM).

[2] = Interleukin-1-Beta-Induced Tumor Necrosis Factor Alpha Release by Human Macrophages; type: cell-based; settings: Macrophage; TNF-α release; recombinant human IL-1β 20 ng/mL; compound 1 h before stimulation; supernatant at 24 h; ELISA
Text: Interleukin-1-Beta-Induced Tumor Necrosis Factor Alpha Release by Human Macrophages
To determine the inhibitory concentrations for the test compounds against interleukin-1 beta (IL-1β)-induced tumor necrosis factor alpha (TNFα) release by human peripheral blood monocyte-derived macrophages. It should be understood that this is a test of the ability of the test compounds to modulate, i.e. inhibit, the activity of IL-1β by measuring the inhibition of IL-1β induced release of TNFα.
Source Human peripheral blood monocyte-derived macrophages:
Venous blood is collected form healthy volunteers in 10 mM sodium citrate (2 mL sterile sodium citrate for 40 mL blood). Mononuclear cells are isolated with the Leucoprep tubes (Becton Dickinson, product number 2752 or 2751) spun at 1500 g for fifteen minutes. Aliquots of 3×10^6 mononuclear cells are added to 24-well tissue culture plates (Corning) in RPMI-1640. After 1 hour incubation at 37° C., non-adherent cells are gently rinsed off. The adherent cells (macrophages) are given back fresh medium RPMI-1640, 1 mL/well.
Macrophage monolayer cultures are pretreated with compounds one hour prior to IL-1β (20 ng/mL, recombinant human IL-1β) stimulation. Compounds dissolved in 95% ethanol or DMSO would require additional monolayer cultures treated with 10 or 2.5 μl 95% ethanol or DMSO, respectively. Culture supernatants are collected 24 hours later and are tested for TNF-α using a commercial ELISA kit (Cistron).
The TNF-α concentration in the culture supernatant is calculated by a standard curve generated from a series of known concentrations. Potency of compound is reported in IC50 (μM).

| SMILES | IC50 [1] [nM] | IC50 [2] [nM] |
| --- | --- | --- |
| CCCCOC(=O)c1cc(=NS(=O)(=O)c2ccccc2)c2c(Cl)cc(Cl)cc2[nH]1 [5,7-Dichloro-4-[benzenesulfonylimino]-1,4-dihydroquinoline-2-carboxylic acid, butyl ester] | 3000 | 5000 |
| COC(=O)c1cc(=NS(=O)(=O)c2ccccc2)c2c(Cl)cc(Cl)cc2[nH]1 [5,7-Dichloro-4-[benzenesulfonylimino]-1,4-dihydroquinoline-2-carboxylic acid, methyl ester] | 6000 | 3000 |
| COC(=O)c1cc(=NS(=O)(=O)c2ccccc2)c2ccccc2o1 [4-[Benzenesulfonylimino]-4H-chromene-2-carboxylic acid, methyl ester] | 3000 | 2000 |
| CNC(=O)c1cc(=NS(=O)(=O)c2ccccc2)c2c(Cl)cc(Cl)cc2[nH]1 [5,7-Dichloro-4-[benzenesulfonylimino]-1,4-dihydroquinoline-2-carboxylic acid-N-methylamide] | 3000 | 4000 |
| CCOC(=O)c1cc(=NS(=O)(=O)c2ccccc2)c2c(Cl)cc(Cl)cc2[nH]1 [5,7-Dichloro-4-[benzenesulfonylimino]-1,4-dihydroquinoline-2-carboxylic acid, ethyl ester] | 2000 | 3000 |
